Measured values: publication PMC12913247 (Pharmaceutical Research, 2025)
Where “and” joins values, the source holds several entries; their conditions need not be identical. Identical values can stand only once.

Columns and labels:
[1] = tested on: HIBCPP cell layer; assay: Transcellular transport; settings: for Papp,correct in the BL-to-AP direction relative to the AP-to-BL direction: BL-to-AP greater than AP-to-BL; for Papp,correct AP-to-BL / Papp,correct BL-to-AP: corrected by lucifer yellow
[2] = Transcellular transport; settings: human
[3] = biological target: T1, GLUT1 (Homo sapiens, UniProt P11166); assay: [3H]3-O-methylglucose uptake by HIBCPP cells; format: cell-based; settings: 10 s, glucose-free IB
T1 sequence (P11166 1-492): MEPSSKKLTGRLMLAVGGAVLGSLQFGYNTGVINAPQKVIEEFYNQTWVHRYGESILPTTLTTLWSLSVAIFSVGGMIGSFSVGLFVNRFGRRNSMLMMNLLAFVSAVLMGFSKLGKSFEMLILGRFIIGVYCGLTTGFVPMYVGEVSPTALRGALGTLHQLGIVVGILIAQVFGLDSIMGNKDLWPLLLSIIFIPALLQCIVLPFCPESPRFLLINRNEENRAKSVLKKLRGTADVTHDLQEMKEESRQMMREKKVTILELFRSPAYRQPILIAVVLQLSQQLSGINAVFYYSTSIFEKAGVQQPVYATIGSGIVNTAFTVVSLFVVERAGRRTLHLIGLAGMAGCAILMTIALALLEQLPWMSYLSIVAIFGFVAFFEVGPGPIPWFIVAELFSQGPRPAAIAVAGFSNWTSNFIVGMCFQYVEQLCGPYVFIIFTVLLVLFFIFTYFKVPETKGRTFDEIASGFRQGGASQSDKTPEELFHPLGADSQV

[4] = tested on: PMAT; assay: MPP+ uptake by HIBCPP cells; format: cell-based, human; settings: 5 min
[5] = biological target: CAT1 (Homo sapiens, UniProt P30825); assay: [3H]L-arginine uptake by HIBCPP cells; format: cell-based; settings: for Relative uptake (% of control): 1 min
Sequence of CAT1 (P30825 whole entry): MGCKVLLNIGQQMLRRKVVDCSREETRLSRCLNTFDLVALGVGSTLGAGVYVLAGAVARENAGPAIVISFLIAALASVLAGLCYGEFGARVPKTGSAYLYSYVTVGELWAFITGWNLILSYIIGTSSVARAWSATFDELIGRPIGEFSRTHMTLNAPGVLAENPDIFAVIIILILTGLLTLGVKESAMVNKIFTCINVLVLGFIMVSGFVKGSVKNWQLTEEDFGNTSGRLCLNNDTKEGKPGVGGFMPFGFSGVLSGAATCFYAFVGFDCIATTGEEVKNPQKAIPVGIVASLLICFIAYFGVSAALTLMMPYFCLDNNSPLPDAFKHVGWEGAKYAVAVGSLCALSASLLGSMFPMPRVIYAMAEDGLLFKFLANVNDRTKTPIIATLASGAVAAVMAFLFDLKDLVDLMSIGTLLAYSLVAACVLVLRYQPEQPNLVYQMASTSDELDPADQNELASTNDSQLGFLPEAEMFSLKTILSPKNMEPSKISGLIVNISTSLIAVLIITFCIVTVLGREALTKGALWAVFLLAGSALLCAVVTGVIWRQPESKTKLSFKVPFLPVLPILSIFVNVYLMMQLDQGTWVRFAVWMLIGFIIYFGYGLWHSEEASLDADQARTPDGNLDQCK

[6] = biological target: LAT1 (Homo sapiens, UniProt Q01650); assay: Gabapentin uptake by HIBCPP cells; format: cell-based
Sequence of LAT1 (Q01650 whole entry): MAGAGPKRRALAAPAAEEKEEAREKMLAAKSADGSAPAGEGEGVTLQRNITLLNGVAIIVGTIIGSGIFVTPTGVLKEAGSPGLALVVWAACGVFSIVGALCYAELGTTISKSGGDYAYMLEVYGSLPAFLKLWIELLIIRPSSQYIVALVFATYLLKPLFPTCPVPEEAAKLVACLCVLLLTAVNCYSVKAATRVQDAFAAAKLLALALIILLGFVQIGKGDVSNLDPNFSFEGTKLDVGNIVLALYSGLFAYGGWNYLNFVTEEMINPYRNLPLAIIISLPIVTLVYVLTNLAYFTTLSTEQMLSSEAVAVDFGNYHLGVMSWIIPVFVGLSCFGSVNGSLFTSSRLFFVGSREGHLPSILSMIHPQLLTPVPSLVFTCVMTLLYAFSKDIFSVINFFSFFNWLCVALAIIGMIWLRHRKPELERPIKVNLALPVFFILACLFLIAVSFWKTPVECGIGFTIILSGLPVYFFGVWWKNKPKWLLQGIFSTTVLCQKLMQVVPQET
Sequence of LAT1 (P08195 102-630 partner): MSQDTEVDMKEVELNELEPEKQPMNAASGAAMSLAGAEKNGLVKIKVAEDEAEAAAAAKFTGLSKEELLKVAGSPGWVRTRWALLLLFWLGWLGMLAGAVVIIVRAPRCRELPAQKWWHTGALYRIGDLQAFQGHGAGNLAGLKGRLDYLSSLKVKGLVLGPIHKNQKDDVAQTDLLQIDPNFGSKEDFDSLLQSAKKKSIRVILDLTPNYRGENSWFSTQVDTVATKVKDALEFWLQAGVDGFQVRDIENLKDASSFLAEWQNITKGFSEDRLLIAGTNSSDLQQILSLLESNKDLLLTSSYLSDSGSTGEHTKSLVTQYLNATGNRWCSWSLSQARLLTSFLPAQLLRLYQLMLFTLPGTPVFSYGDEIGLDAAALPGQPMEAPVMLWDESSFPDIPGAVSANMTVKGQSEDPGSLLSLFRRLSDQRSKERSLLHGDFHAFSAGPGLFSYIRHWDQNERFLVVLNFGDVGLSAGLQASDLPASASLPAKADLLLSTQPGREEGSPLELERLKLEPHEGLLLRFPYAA

[7] = biological target: GLAST (Homo sapiens, UniProt P43003); assay: [3H]L-glutamate uptake by HIBCPP cells; format: cell-based; settings: 1 min
Sequence of GLAST (P43003 whole entry): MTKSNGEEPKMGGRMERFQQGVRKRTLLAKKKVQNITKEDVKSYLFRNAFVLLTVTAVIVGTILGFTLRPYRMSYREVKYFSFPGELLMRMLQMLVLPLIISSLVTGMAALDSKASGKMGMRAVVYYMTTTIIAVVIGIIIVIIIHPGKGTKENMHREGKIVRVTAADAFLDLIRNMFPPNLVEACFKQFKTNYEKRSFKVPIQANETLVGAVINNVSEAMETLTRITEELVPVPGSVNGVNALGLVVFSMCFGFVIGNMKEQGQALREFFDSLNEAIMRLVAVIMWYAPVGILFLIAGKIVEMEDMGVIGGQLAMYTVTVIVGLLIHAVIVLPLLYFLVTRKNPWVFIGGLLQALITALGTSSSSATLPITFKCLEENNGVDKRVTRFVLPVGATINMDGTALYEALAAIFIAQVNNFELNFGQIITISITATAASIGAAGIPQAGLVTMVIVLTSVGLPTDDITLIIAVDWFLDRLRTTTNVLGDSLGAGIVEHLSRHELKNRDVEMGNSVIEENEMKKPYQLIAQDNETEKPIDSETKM

[8] = tested on: OATP1B3; assay: Telmisartan uptake by HIBCPP cells; format: cell-based, human; settings: telmisartan uptake at 4°C, 30 s
[9] = biological target: T2, MCT1 (Homo sapiens, UniProt P53985); assay: [14C]L-lactate uptake by HIBCPP cells; format: cell-based; settings: IB pH 6.0
T2 sequence (P53985 1-500): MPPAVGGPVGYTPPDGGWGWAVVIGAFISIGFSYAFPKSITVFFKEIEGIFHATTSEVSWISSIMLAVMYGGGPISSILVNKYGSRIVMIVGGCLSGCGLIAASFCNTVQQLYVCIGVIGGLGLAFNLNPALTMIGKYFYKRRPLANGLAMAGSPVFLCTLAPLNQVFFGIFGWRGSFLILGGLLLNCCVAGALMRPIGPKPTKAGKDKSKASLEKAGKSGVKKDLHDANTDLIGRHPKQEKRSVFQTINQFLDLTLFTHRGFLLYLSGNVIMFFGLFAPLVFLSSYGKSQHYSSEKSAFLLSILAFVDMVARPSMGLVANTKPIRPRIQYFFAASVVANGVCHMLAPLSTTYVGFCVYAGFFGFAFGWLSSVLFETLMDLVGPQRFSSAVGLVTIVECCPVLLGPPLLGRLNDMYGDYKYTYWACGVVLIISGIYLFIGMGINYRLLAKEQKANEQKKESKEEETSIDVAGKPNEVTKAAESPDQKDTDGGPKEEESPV

[10] = biological target: T3, SLC35F2 (Homo sapiens, UniProt Q8IXU6); assay: YM155 uptake by HIBCPP cells; format: cell-based; settings: 30 s
T3 sequence (Q8IXU6 1-374): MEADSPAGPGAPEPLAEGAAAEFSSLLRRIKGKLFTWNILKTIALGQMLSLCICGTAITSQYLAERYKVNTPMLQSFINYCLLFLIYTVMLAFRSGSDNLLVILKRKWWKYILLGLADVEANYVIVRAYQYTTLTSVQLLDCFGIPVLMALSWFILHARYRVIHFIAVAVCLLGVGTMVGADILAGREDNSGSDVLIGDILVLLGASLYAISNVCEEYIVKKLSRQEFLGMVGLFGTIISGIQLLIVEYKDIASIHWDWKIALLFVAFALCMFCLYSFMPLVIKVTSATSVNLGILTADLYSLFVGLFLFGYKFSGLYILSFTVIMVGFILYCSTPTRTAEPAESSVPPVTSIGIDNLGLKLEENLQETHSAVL

[11] = Papp,correct (AP-to-BL)/Papp,correct (BL-to-AP)

## O=C1CN(/N=C/c2ccc(-c3ccc([N+](=O)[O-])cc3)o2)C(O)=N1 [Dantrolene, Dantrolene sodium]
[1]
  Papp,correct in the BL-to-AP direction relative to the AP-to-BL direction: 2 times
[1]; [11]
  Efflux ratio: 0.52
[2]
  Papp A→B: 5.98 ± 0.77 ×10⁻⁶ cm/s
  Papp A→B at 2 h: 9.28 ± 0.77 ×10⁻⁶ cm/s
  Papp B→A: 11.5 ± 0.9 ×10⁻⁶ cm/s
  Papp B→A at 2 h: 14.8 ± 0.9 ×10⁻⁶ cm/s

## OC[C@H]1OC(O)[C@H](O)[C@@H](O)[C@@H]1O (some centres unmarked) [Glucose]
[3]; [3H]3-O-methylglucose uptake + 5.6 mM glucose
  Relative uptake (% of control): 54.7 ± 1.4 % of control

## NCCc1c[nH]c2ccc(O)cc12 [Serotonin]
[4]; MPP+ uptake + 1 mM serotonin
  Relative uptake (% of control): 48.6 ± 5.1 % of control

## NCCC[C@H](N)C(=O)O [L-Ornithine]
[5]; [3H]L-arginine uptake + 1 mM L-ornithine
  Relative uptake (% of control): 18.7 ± 0.2 % of control

## C[n+]1ccc(-c2ccccc2)cc1 [MPP^+, 1-methyl-4-phenylpyridinium]
[4]; MPP+ uptake at 4°C
  Relative uptake (% of control): 22.2 ± 5.5 % of control
[1]; [11]
  Efflux ratio: 1.03

## Nc1cc(COc2c(Cl)cc(C[C@H](N)C(=O)O)cc2Cl)c2oc(-c3ccccc3)nc2c1 [JPH203]
[6]; gabapentin uptake + 10 μM JPH203, 1 min
  Relative uptake (% of control): 13.1 ± 0.2 % of control

## N[C@@H](CC(=O)O)C(=O)O [L-Aspartic acid]
[7]; [3H]L-glutamate uptake + 1 mM L-aspartic acid
  Relative uptake (% of control): 65.3 ± 4.9 % of control
[7]; [3H]L-glutamate uptake + 1 mM L-aspartic acid, listed as L-aspartic acid
  Relative uptake (% of control): 65.3 % of control

## CCCc1nc2c(C)cc(-c3nc4ccccc4n3C)cc2n1Cc1ccc(-c2ccccc2C(=O)O)cc1 [Telmisartan]
[8]
  Relative uptake (% of control): 22.9 ± 1.4 % of control
[2]
  Papp A→B at 2 h: 0.9 ± 0.23 ×10⁻⁶ cm/s
  Papp B→A: 10.5 ± 3.3 ×10⁻⁶ cm/s
  Papp B→A at 2 h: 13.8 ± 3.3 ×10⁻⁶ cm/s
[2]; Efflux ratio, Papp,correct (AP-to-BL)/Papp,correct (BL-to-AP)
  Efflux ratio: < 1

## Cc1[nH]nc(C(F)(F)F)c1Cc1sc2c(c1C(=O)N1C[C@](C)(O)CO1)c(=O)n(C)c(=O)n2C(C)C [AZD3965]
[9]; [14C]L-lactate uptake + 20 nM AZD3965, 30 s
  Relative uptake (% of control): 28.0 % of control and 28.0 ± 1.6 % of control

## [3H]CO[C@H]1[C@H](O)[C@@H](CO)OC(O)[C@@H]1O (stereo partly drawn) [[^3H]3-O-Methylglucose, methyl-D-glucose 3-O-[methyl-^3H]]
[3]; [3H]3-O-methylglucose uptake at 4°C
  Relative uptake (% of control): 14.0 ± 1.3 % of control
[1]; [11]
  Efflux ratio: 1.05

## [14CH3][14CH](O)[14C](=O)[O-].[Na+] [[^14C]L-Lactate, lactic acid L-[^14C(U)] Na salt]
[9]; [14C]L-lactate uptake at 4°C, 30 s
  Relative uptake (% of control): 17.7 % of control and 17.7 ± 0.4 % of control
[1]; AP side pH 6.0 BL side pH 7.4
  Papp AP-to-BL: 30.6 ± 2.0 × 10^–6 cm/sec
  Papp BL-to-AP: 4.71 ± 0.14 × 10^–6 cm/sec
  Papp,correct AP-to-BL: 27.3 ± 2.0 × 10^–6 cm/sec
  Papp,correct BL-to-AP: 1.44 ± 0.14 × 10^–6 cm/sec
[1]; AP side pH 6.0 BL side pH 7.4, Papp,correct (AP-to-BL)/(BL-to-AP)
  Efflux ratio: 19.0
[1]; AP side pH 7.4 BL side pH 6.0
  Papp AP-to-BL: 3.05 ± 0.09 × 10^–6 cm/sec
  Papp BL-to-AP: 11.5 ± 0.1 × 10^–6 cm/sec
  Papp,correct BL-to-AP: 8.20 ± 0.11 × 10^–6 cm/sec
[1]; AP side pH 7.4 BL side pH 7.4
  Papp AP-to-BL: 9.56 ± 0.20 × 10^–6 cm/sec
  Papp BL-to-AP: 8.84 ± 0.36 × 10^–6 cm/sec
  Papp,correct AP-to-BL: 6.26 ± 0.20 × 10^–6 cm/sec
  Papp,correct BL-to-AP: 5.57 ± 0.36 × 10^–6 cm/sec
[1]; AP side pH 7.4 BL side pH 7.4, Papp,correct (AP-to-BL)/(BL-to-AP)
  Efflux ratio: 1.12

## NC(N)=NCCC[C@H](N)C(=O)O [[^3H]L-Arginine, arginine L-[2,3,4-^3H]]
[5]; [3H]L-arginine uptake at 4°C
  Relative uptake (% of control): 6.80 ± 0.69 % of control
[5]; [3H]L-arginine uptake, low temperature (4°C)
  Decrease of uptake at low temperatures: > 90%
[5]; [3H]L-arginine, at 4 °C or in the presence of respective inhibitor
  Reduction of uptake into HIBCPP cells: more than 80%
[1]; [11]
  Efflux ratio: exceed 1

## NCC1(CC(=O)O)CCCCC1 [Gabapentin]
[6]; gabapentin uptake at 4°C, 1 min
  Relative uptake (% of control): 9.24 ± 0.54 % of control
[6]; gabapentin uptake, low temperature (4°C)
  Decrease of uptake at low temperatures: > 90%
[6]; gabapentin, at 4 °C or in the presence of respective inhibitor
  Reduction of uptake into HIBCPP cells: more than 80%
[1]; [11]
  Efflux ratio: 50.7
[2]
  Papp A→B: 10.8 ± 0.6 ×10⁻⁶ cm/s
  Papp A→B at 2 h: 14.1 ± 0.6 ×10⁻⁶ cm/s
  Papp B→A: 0.213 ± 0.078 ×10⁻⁶ cm/s
  Papp B→A at 2 h: 3 ± 0.08 ×10⁻⁶ cm/s

## COCCn1c2c([n+](Cc3cnccn3)c1C)C(=O)c1ccccc1C2=O [YM155]
[10]; YM155 uptake at 4°C
  Relative uptake (% of control): 27.8 ± 3.0 % of control
[2]
  Papp A→B: 3.36 ± 0.34 ×10⁻⁶ cm/s
  Papp A→B at 2 h: 6.66 ± 0.34 ×10⁻⁶ cm/s
  Papp B→A: 1.32 ± 0.37 ×10⁻⁶ cm/s
  Papp B→A at 2 h: 4.59 ± 0.37 ×10⁻⁶ cm/s

## glutamic acid L-[2,3,4-^3H] [[^3H]L-Glutamate]
[7]; [3H]L-glutamate uptake at 4°C
  Relative uptake (% of control): 17.7 ± 3.0 % of control
[7]; [3H]L-glutamate uptake at 4°C, listed as [^3H]L-glutamate
  Relative uptake (% of control): 17.7 % of control
[1]
  Papp,correct in the BL-to-AP direction relative to the AP-to-BL direction: approximately 2 times
[1]; [11]
  Efflux ratio: 0.45
[1]; Papp,correct (AP-to-BL)/Papp,correct (BL-to-AP), listed as [^3H]L-glutamate
  Efflux ratio: below 1

## NC(N)=Nc1nc(CSCCC(N)=NS(N)(=O)=O)cs1 [Famotidine]
[10]; YM155 uptake + 1 mM famotidine
  Relative uptake (% of control): 40.0 ± 8.5 % of control
